Source: PubChem BioAssay (NCI)
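Protocol summary: plate cells (96-well), add compound at 5 concentrations, incubate 48 h, interpolate endpoints linearly. Abbreviation: GI50, concentration required for 50% inhibition of growth. TGI marks complete inhibition of growth.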

What was measured:
Assay in all cases: growth of human tumour cells (NCI), 48 h
K-562 leukemia = test system: K-562 leukemia
MDA-MB-231 breast = test system: MDA-MB-231 breast
HCT-15 colon = test system: HCT-15 colon
RXF 393 renal = test system: RXF 393 renal
HOP-92 NSCLC = test system: HOP-92 NSCLC
HCT-116 colon = test system: HCT-116 colon
NCI-H460 lung = test system: NCI-H460 lung
HOP-62 NSCLC = test system: HOP-62 NSCLC
NCI-H23 lung = test system: NCI-H23 lung
CAKI-1 renal = test system: CAKI-1 renal

| Structure (SMILES) | GI50 (K-562 leukemia) [µM] | TGI (K-562 leukemia) [µM] | GI50 (MDA-MB-231 breast) [µM] | TGI (MDA-MB-231 breast) [µM] | GI50 (HCT-15 colon) [µM] | TGI (HCT-15 colon) [µM] | GI50 (RXF 393 renal) [µM] | TGI (RXF 393 renal) [µM] | GI50 (HOP-92 NSCLC) [µM] | TGI (HOP-92 NSCLC) [µM] | GI50 (HCT-116 colon) [µM] | TGI (HCT-116 colon) [µM] | GI50 (NCI-H460 lung) [µM] | TGI (NCI-H460 lung) [µM] | GI50 (HOP-62 NSCLC) [µM] | TGI (HOP-62 NSCLC) [µM] | GI50 (NCI-H23 lung) [µM] | TGI (NCI-H23 lung) [µM] | GI50 (CAKI-1 renal) [µM] | TGI (CAKI-1 renal) [µM] |
| --- | --- | --- | --- | --- | --- | --- | --- | --- | --- | --- | --- | --- | --- | --- | --- | --- | --- | --- | --- | --- |
| O=C(/C=C/c1cc(CN2CCOCC2)c(O)c2ncccc12)c1cc(CN2CCOCC2)c(O)c2ncccc12 | < 0.0114 | > 100 | 0.145 | > 100 | 0.0236 | > 100 | 0.14 | 14.3 | 0.0292 | 0.525 | 0.0245 | > 100 | < 0.0169 | > 55.9 | 0.0335 | > 39 | 0.0586 | > 100 | 0.0842 | > 100 |
| N=C(N)SCc1cccc(-c2nc3ccccc3c(=O)o2)c1 |  | > 100 |  | > 100 |  | > 100 |  | > 100 |  | > 100 |  | > 100 |  | > 100 |  | > 100 |  | > 100 |  | > 100 |
| CC(C)CNC(=O)O |  | > 100 |  | > 100 |  | > 100 |  | > 100 |  | > 100 |  | > 100 |  | > 100 |  | > 100 |  | > 100 |  | > 100 |
| O=C(Nc1ccc(Br)cc1)c1ccc(Cl)c(Cl)c1 | 3.99 | > 100 | 3.24 | > 100 | 3.02 | > 100 | > 28 | > 100 | 0.341 | 5.1 | 2.72 | 8.07 | 3.16 | > 30.5 | 3.86 | > 52.3 | 2.32 | 7.32 | 1.51 | 4.58 |
